Measurements published in US7585503B2, “Method for detecting multi-drug resistance” (priority 2005, dated 2009).

Legend:
Format in all cases: cell-based, human
[1] = system: 2008/C13*5.25 resistant ovarian carcinoma cells; test: Cytotoxicity assay by colony forming ability, resistant cells; conditions: 25 μM cisplatin with or without 5 mU sialidase, 1 h, about two weeks of growth
Procedure: To confirm the sialidase effects on F-DDP internalization and sensitizing the resistant cells to the drug, the resistant cells were tested in cytotoxicity assay to determine colony formation ability with cisplatin treatments in the presence and absence of sialidase. Resistant cells were treated with high concentration of cisplatin (25 μM, an IC-50 about 10 fold higher than that of the sensitive cells) in the absence and presence of 5 mU sialidase (see table 1 in “Experimental procedures”). The colony formation ability of MDR cells was reduced 40-50%, when sialidase concomitant with cisplatin was added to the resistant cells compare to the resistant cells treated with the same amounts of cisplatin in the absence of sialidase. The data, thus, support the sialidase-mediated drug internalization and increasing the cytotoxicity of the drug.
Colony forming ability assay was performed by seeding 100 cells/ml of sensitive or resistant isotypes per each well/ml in 12 well plates. Cells were cultured with DMEM, 10% FBS overnight. The assay was performed in 4 plates for each of the sensitive or resistant isotypes in the format shown in Table 1 and was repeated three times. 2008 isotype pair were used in the experiment. […]

[2] = system: 2008 sensitive ovarian carcinoma cells; test: Cytotoxicity assay by colony forming ability, sensitive cells; conditions: 25 μM cisplatin, 1 h
Procedure: Colony forming ability assay was performed by seeding 100 cells/ml of sensitive or resistant isotypes per each well/ml in 12 well plates. Cells were cultured with DMEM, 10% FBS overnight. The assay was performed in 4 plates for each of the sensitive or resistant isotypes in the format shown in Table 1 and was repeated three times. 2008 isotype pair were used in the experiment. Sensitive cells could not tolerate such high concentration of cisplatin, used in the assay, to serve the resistant cells, as the IC-50 was 10 fold higher for resistant cells compare to their parental susceptible phenotype.
Table 1: Colony forming ability was performed by seeding 100 cells/ml of sensitive or resistant isotypes per each well/ml in 12 well plates. Cells were cultured with DMEM, 10% FBS overnight. The assay was performed in 4 plates for each of the sensitive or resistant isotypes in the above format and was repeated three times for each cell pair. plate 1 (control): DMEM, 10%FBS; plate 2: DMEM containing 25 μM cisplatin; plate 3: DMEM containing 25 μM cisplatin and 5 mU neuraminidase (AUS); plate 4: DMEM containing 5 mU neuraminidase.
After one hour incubation at 37 degree C., 5% CO2, the media of different treatments were removed from the wells. Cells were then washed with DMEM and was replaced by fresh DMEM, 10% FBS. Incubation continued for about two more weeks for the colonies to appear. […]

[3] = system: 2008/C13*5.25; test: Cisplatin resistance (IC-50) of resistant sub-line versus parental line
Source text: (§1) Three isogenic pairs of sensitive and multidrug resistant phenotypes of human ovarian carcinoma cell lines were studied. […] The morphology of the resistant cells differed from the sensitive isotypes, consistent with the cell surface molecular modifications.

[4] = system: A2780/CP; test: as above
Source text: as §1

[5] = system: IGROV-1/CP; test: as above; conditions: IGROV-1/CP versus parental IGROV-1
Source text: as §1

Structure (SMILES): N.N.[Cl][Pt][Cl] [cisplatin, Dichlorodiaminocisplatin]
- cell growth / colony formation relative to control (plate #1 = 100% growth) [1]: about 80 % of the control
- colony formation (in words) [2]: almost no real colony formed
- fold increase in IC-50 to cisplatin resistance ([3]; 2008/C13*5.25 versus parental 2008): 10.4 fold
- IC50 ([3]; resistant cells, the concentration used in the colony assay): 25 µM
- fold increase in IC-50 to cisplatin resistance [4]: 6.9 fold
- fold increase in IC-50 to cisplatin resistance [5]: 7.6 fold
